Results reported in patent US11230526B1, “Cylcoalkenyl derivatives useful as agonists of the GPR120 and/or GPR40 receptors” (Janssen Pharmaceutica NV, priority 2018, dated 2022).

Experiments:
C57bl/6J Mice = experiment: GPR120 C57bl6 mouse IPGTT; type: in vivo; settings: male C57bl/6J mice, dosed 30 minutes prior to glucose (IP) 1.5 g/kg
Procedure: Male, C57bl/6J Mice were ordered in at 8 weeks of age from Jackson Labs. Individual mice weighed anywhere in the range of 25-30 grams on study day. The mice were fasted, with removal of food occurring at 7 am on the morning of the study. Animals were moved into the room at 10:00 am, to give them time to acclimate. Glucose (insulin syringes) was drawn up either the night before or the morning of the study. Glucose was dosed (IP) at 1.5 g/kg at 7.5 ml/kg (20% glucose straight TEKNOVA, 250 ml sterile bottle w/catalogue number G0525). Test compounds were kept spinning and were only drawn into the syringes prior to study commencement. Animals were bled via tail snip to determine basal glucose levels prior to dosing of treatments. An Ascensia BREEZE Blood Glucose Monitoring System by Bayer (using unique 10-test disks) was used for determining glucose levels. The bleeds started at approximately 12:45 pm and dosing started, at 1-minute intervals, immediately after. All groups were dosed 30 minutes prior to glucose administration at a dose volume of 10 ml/kg (the dose volume was calculated separately for each individual animal). Thirty minutes after the first dose animals were bled again for a second baseline, or T=0, and immediately dosed with glucose via an i.p. injection. The exact dose volume for glucose was also calculated separately for each individual animal. Glucose measurements were taken at −30 min prior to compound dose, at t=0 (immediately prior to glucose dose), and at 15, 30, 45, 60, 90 min post glucose dose.
Glucose values were entered into an Excel sheet and graphed in GraphPad Prism. The following were calculated from Prism: Change from −30 to 0 Baseline Glucose, Raw Glucose AUC −30 to 90 min, Delta Glucose AUC −30 to 90 min, Raw Glucose AUC 0 to 90 min, Delta Glucose AUC 0 to 90 min.

[1] = system: C57B16 mice on a high fat diet; experiment: GPR120 DIO mice OGTT screening; type: in vivo, mouse; settings: DIO mice (60% HFD), glucose AUC −30 to 90 min, % change from vehicle
Procedure: GPR120 DIO Mice OGTT Screening
18-22 week old, C57B16 mice on a high fat diet (60% HFD) for 12-16 weeks (ave. body weight ˜ 37-41 g) were fasted for 6 hr, with removal of food occurring at 7 am on the morning of the study. The animals were sorted into treatment groups the day before the study by body weight. Animals outside the bounds of ˜30-50 g were left out of the study. The animals had been handled and shammed a total of 5-8 days (1-3 days immediately prior to the study). Glucose (in 1 mL syringes) was drawn up the morning of the study. Test compounds were kept spinning and were only drawn into 1 ml syringes prior to study commencement. Animals were bled via tail snip to determine basal glucose levels prior to dosing of treatments. An Ascensia BREEZE Blood Glucose Monitoring System by Bayer was used for determining glucose levels.
Animals were moved into the testing room at ˜9-11 am, to yield them time to acclimate. The bleeds and dosing started at approximately 1 pm in 30-second intervals per animal. All groups were dosed 30 minutes prior to glucose administration at a dose volume of 10 ml/kg (the dose volume was calculated separately for each individual animal). Test compounds were administered at one or more of the following dosages: 0.1 mg/kg, 0.3 mg/kg, 1 mg/kg, 3 mg/kg and 10 mg/kg.
Thirty minutes after the first dose (with test compound) animals were bled again for a second baseline, or T=0, and immediately dosed with glucose (20% solution, TEKNOVA, 250 ml sterile bottle w/catalogue number G0525) via a PO injection. The exact dose volume for glucose was also calculated separately for each individual animal.
Blood glucose was measured at 15, 30, 45, 60, and 90 minutes post-glucose administration via the snipped tail. If an animal reached a value of “HI”, the upper limit of the glucometer (600 mg/dl) was substituted as the blood glucose value and the study was analyzed as normal with no exclusions. If 50% or more of any treatment group reaches a “HI” value at least once, the study was considered invalid and repeated. Glucose values were typed into an EXCEL spreadsheet where they were used to calculate glucose AUC and delta AUC post-compound and post-glucose. The glucose excursion curves and the different versions of the AUC's were graphed in GraphPad Prism 5.
Note: All statistics completed in this study were completed using the statistical software package GraphPad Prism 5. Standard procedures for analyzing data sets from screening GPR120 compounds in DIO mouse OGTT's were as listed here below. In addition to the statistics that were run using GraphPad Prism 5, Microsoft Excel was used to calculate the percent changes in AUC from vehicle groups as detailed below.
Change from −30 to 0 Baseline Glucose, Raw Glucose AUC −30 to 90 min, Delta Glucose AUC −30 to 90 min, Raw Glucose AUC 0 to 90 min, Delta Glucose AUC 0 to 90 min were analyzed using Column Statistics Analysis, with mean values used to calculate % change from the vehicle mean group, as well as mean, SEM and/or % change from vehicle, where appropriate, and using One-Way ANOVA w/a Tukey Post-Test (Comparing All Pairs of Columns) with each treatment group examined to see if it was statistically significant compared to vehicle (*=P<0.05, **=P<0.01, ***=P<0.001).

Structure (SMILES) | C57 IPGTT, Dose Response Results (C57bl/6J Mice; 3 mg/kg) [%] | C57 IPGTT, Dose Response Results (C57bl/6J Mice; 10 mg/kg) [%] | C57 IPGTT, Dose Response Results (C57bl/6J Mice; 30 mg/kg) [%] | C57 IPGTT, Dose Response Results (C57bl/6J Mice; 1 mg/kg) [%] | DIO Lowering (−30 to 90) ([1]; 10 mg/kg) [%] | DIO Lowering (−30 to 90) ([1]; 3 mg/kg) [%]
CCc1ccc(C2=C(COc3ccc(CCC(=O)O)c(F)c3F)CCC2)cc1 [Compound 25, 3-(4-((2-(4-ethylphenyl)cyclopent-1-en-1-yl)methoxy)-2,3-difluorophenyl)Propanoic Acid] | 17 | 22 | 39 |  |  | 
CCc1ccc(C2=C(COc3ccc(CCC(=O)O)c(C)c3C)CCC2)cc1 [Compound 27, 3-(4-((2-(4-ethylphenyl)cyclopent-1-en-1-yl)methoxy)-2,3-dimethylphenyl)Propanoic Acid] | 23 | 37 |  | 15 |  | 
Cc1ccc(C2=C(COc3ccc(CCC(=O)O)c(C)c3C)CCC2)cc1 [Compound 52, 3-[2,3-dimethyl-4-[[2-(p-tolyl)cyclopenten-1-yl]methoxy]phenyl]Propanoic Acid] | 11 | 30 | 92 |  | −86 | 
Cc1cc(CCC(=O)O)ccc1OCC1=C(c2ccc(Cl)cc2)CCC1 [Compound 62, 3-[4-[[2-(4-chlorophenyl)cyclopenten-1-yl]methoxy]-3-methyl-phenyl]Propanoic Acid] | 35 | 56 |  | 10 |  | 
Cc1ccc(C2=C(COc3ccc(CCC(=O)O)c(C)c3C)CCC2)cc1F [Compound 80, 3-(4-((2-(3-fluoro-4-methylphenyl)cyclopent-1-en-1-yl)methoxy)-2,3-dimethylphenyl)Propanoic Acid] | 10 | 55 | 81 |  | −60 | −33
Cc1ccc(C2=C(COc3ccc(CCC(=O)O)c(C)c3C)CCC2)cn1 [Compound 85, 3-(2,3-dimethyl-4-((2-(6-methylpyridin-3-yl)cyclopent-1-en-1-yl)methoxy)phenyl)Propanoic Acid] | 24 | 19 |  | 13 |  | 
Cc1ccc(C2=C(COc3ccc(CCC(=O)O)c(F)c3F)CCC2)cc1 [Compound 94, 3-(2,3-difluoro-4-((2-(p-tolyl)cyclopent-1-en-1-yl)methoxy)phenyl)Propanoic Acid] |  |  |  |  | −11 | 
Cc1c(CCC(=O)O)ccc(OCC2=C(c3ccc(Cl)cc3)CC(F)(F)C2)c1C [Compound 137, 3-[4-[[2-(4-chlorophenyl)-4,4-difluoro-cyclopenten-1-yl]methoxy]-2,3-dimethyl-phenyl]Propanoic Acid] |  |  |  |  | −56 | 
Cc1c(CCC(=O)O)ccc(OCC2=C(c3ccc(Cl)cc3)CCC(F)(F)C2)c1C [Compound 468, 3-[4-[[2-(4-chlorophenyl)-5,5-difluoro-cyclohexen-1-yl]methoxy]-2,3-dimethyl-phenyl]Propanoic Acid] |  |  |  |  | −85 | 
Cc1cc(CCC(=O)O)ccc1OCC1=C(c2ccc(Cl)cc2)CCCC1 [Compound 483, 3-[4-[[2-(4-chlorophenyl)cyclohexen-1-yl]methoxy]-3-methyl-phenyl]Propanoic Acid] | 33 | 51 |  | 23 |  | 
Cc1ccc(C2=C(COc3ccc(CCC(=O)O)c(F)c3F)CCCC2)cc1F [Compound 494, 3-[2,3-difluoro-4-[[2-(3-fluoro-4-methyl-phenyl)cyclohexen-1-yl]methoxy]phenyl]Propanoic Acid] |  |  |  |  | −28 | 
